Experimental data published in ChEMBL document CHEMBL5244223, “l,8-Naphthalimide based DNA intercalators and anticancer agents. A systematic review from 2007 to 2017” (Eur J Med Chem, 2018).
≈ marks a conversion by molar mass, not a printed value. Each block holds one compound with its values, some of them ahead of it.

Columns and labels:
Escherichia coli = assay: Antibacterial activity against Escherichia coli MTCC-739 assessed as inhibition of bacterial growth incubated for 24 hrs by two-fold serial dilution assay; type: functional
Salmonella typhimurium = assay: Antibacterial activity against Salmonella typhimurium MTCC-98 assessed as inhibition of bacterial growth incubated for 24 hrs by two-fold serial dilution assay; type: functional, Salmonella enterica subsp. enterica serovar Typhimurium; settings: Salmonella enterica
Calf thymus DNA [1] = assay: Binding affinity to calf thymus DNA assessed as binding constant incubated for 30 mins by fluorescence based EtBr-displacement assay; type: nucleic-acid assay; settings: Bos taurus
Staphylococcus aureus = assay: Antibacterial activity against Staphylococcus aureus MTCC-737 assessed as inhibition of bacterial growth incubated for 24 hrs by two-fold serial dilution assay; type: functional
Salmon testes DNA = assay: Binding affinity to salmon Testis DNA assessed as equilibrium binding constant by steady-state fluorescence spectroscopic analysis; settings: Salmo salar
Homo sapiens [2] = species on record: Homo sapiens; assay: Binding affinity to double stranded [poly(dA-dT)2] DNA (unknown origin) assessed as equilibrium binding constant by steady-state fluorescence spectroscopic analysis
Homo sapiens [3] = species on record: Homo sapiens; assay: Binding affinity to double stranded [poly(dG-dC)2] DNA (unknown origin) assessed as equilibrium binding constant by steady-state fluorescence spectroscopic analysis
P388 = assay: Cytotoxicity against mouse P388 cells assessed as cell growth inhibition by MTT assay; type: functional, cell-based
A549 = assay: Cytotoxicity against human A549 cells assessed as cell growth inhibition by MTT assay; type: functional, cell-based
HeLa = assay: Cytotoxicity against human HeLa cells assessed as cell growth inhibition by MTT assay; type: functional, cell-based
HL-60 = assay: Cytotoxicity against human HL-60 cells assessed as cell growth inhibition by MTT assay; type: functional, cell-based
A-375 = assay: Cytotoxicity against human A-375 cells assessed as cell growth inhibition by MTT assay; type: functional, cell-based
MCF7 = assay: Cytotoxicity against human MCF7 cells assessed as cell growth inhibition by MTT assay; type: functional, cell-based
HCT-8 = assay: Cytotoxicity against human HCT-8 cells assessed as cell growth inhibition by MTT assay; type: functional, cell-based
Sarcoma-180 [4] = assay: Inhibition of DNA synthesis in mouse Sarcoma-180 cells at 8 uM incubated for 30 mins by [3H]-thymidine incorporation based scintillation counter analysis; type: functional; settings: Sarcoma-180, 0.5 h
Sarcoma-180 [5] = assay: Inhibition of RNA synthesis in mouse Sarcoma-180 cells at 8 uM incubated for 60 mins by [3H]-uridine incorporation based scintillation counter analysis; type: functional; settings: Sarcoma-180, 1 h
Ehrlich [6] = assay: Antitumor activity against mouse EAC cell xenografted in Swiss mouse assessed as T/C ratio at 25 mg/kg, po daily measured upto 7 days; type: functional; settings: time <= 7 day
Sarcoma-180 [7] = assay: Antitumor activity against mouse Sarcoma-180 cells xenografted in Swiss mouse assessed as T/C ratio at 25 mg/kg, po daily measured upto 7 days; type: functional; settings: time <= 7 day
H22 = assay: Antiproliferative activity against mouse H22 cells assessed as inhibition of cell growth incubated for 48 hrs by MTT assay; type: functional, cell-based; settings: H22, 48 h
Bel-7402 = assay: Antiproliferative activity against human Bel-7402 cells assessed as inhibition of cell growth incubated for 48 hrs by MTT assay; type: functional, cell-based; settings: Bel-7402, 48 h
HepG2 = assay: Antiproliferative activity against human HepG2 cells assessed as inhibition of cell growth incubated for 48 hrs by MTT assay; type: functional, cell-based; settings: HepG2, 48 h
SMMC-7721 = assay: Antiproliferative activity against human SMMC-7721 cells assessed as inhibition of cell growth incubated for 48 hrs by MTT assay; type: functional, cell-based; settings: SMMC-7721, 48 h
Calf thymus DNA [8] = assay: Binding affinity to calf thymus DNA assessed as binding constant incubated for 10 mins by isothermal titration calorimetric assay; type: nucleic-acid assay; settings: Bos taurus
Sarcoma-180 [9] = assay: Antitumor activity against mouse Sarcoma-180 cells xenografted in Swiss mouse assessed as T/C ratio at 0.5 mg/kg, po daily measured upto 7 days; type: functional; settings: time <= 7 day
Sarcoma-180 [10] = assay: Antitumor activity against mouse Sarcoma-180 cells xenografted in Swiss mouse assessed as T/C ratio at 40 mg/kg, po daily measured upto 7 days; type: functional; settings: time <= 7 day
Ehrlich [11] = assay: Antitumor activity against mouse EAC cell xenografted in Swiss mouse assessed as T/C ratio at 40 mg/kg, po daily measured upto 7 days; type: functional; settings: time <= 7 day

MIC (Escherichia coli): 31 µg/mL (≈ 86 µM) | MIC (Salmonella typhimurium): 62 µg/mL (≈ 172 µM) | Kb (Calf thymus DNA [1]): 2 10^4/M | MIC (Staphylococcus aureus): 62 µg/mL (≈ 172 µM)
Structure (SMILES): COc1ccc(/C=N/N2C(=O)c3cccc4cccc(c34)C2=O)cc1OC

Kb (Salmon testes DNA): 1.38 10^5/M | Kb (Homo sapiens [2]): 5.15 10^5/M | Kb (Homo sapiens [3]): 0.82 10^5/M
Structure (SMILES): C[n+]1ccc(CCN2C(=O)c3cccc4c(N)ccc(c34)C2=O)cc1

Structure (SMILES): COc1ccc2c(CC(=O)NCCN3C(=O)c4cccc5c(N(C)C)ccc(c45)C3=O)c(C)n(C(=O)c3ccc(Cl)cc3)c2c1
IC50 (P388): 13.9 µM | IC50 (A549): 13.9 µM | IC50 (HeLa): 13.9 µM | IC50 (HL-60): 13.9 µM | IC50 (A-375): 13.9 µM | IC50 (MCF7): 13.9 µM | IC50 (HCT-8): 13.9 µM

Structure (SMILES): O=NN(CCCl)C(=O)NC1CCCCC1 [LOMUSTINE]
inhibition at 8 µM (Sarcoma-180 [4]): 64% | inhibition at 8 µM (Sarcoma-180 [5]): 90% | T/C (Ehrlich [6]): >240% | T/C (Sarcoma-180 [7]): >279%

Structure (SMILES): O=C1c2cccc3cc([N+](=O)[O-])cc(c23)C(=O)N1CCCCN(CCCl)CCCl
IC50 (H22): 1900 nM | IC50 (Bel-7402): 1900 nM | IC50 (HepG2): 1900 nM | IC50 (SMMC-7721): 1900 nM

K (Calf thymus DNA [8]): 9.53 10^6/M
Structure (SMILES): C[n+]1ccn(CCN2C(=O)c3cc(Br)c4c5c(cc(Br)c(c35)C2=O)C(=O)N(CCn2cc[n+](C)c2)C4=O)c1

Structure (SMILES): CN(C)CCN1C(=O)c2cccc3cc([N+](=O)[O-])cc(c23)C1=O [MITONAFIDE]
inhibition at 8 µM (Sarcoma-180 [4]): 99% | inhibition at 8 µM (Sarcoma-180 [5]): 94% | T/C (Sarcoma-180 [9]): 187%

Structure (SMILES): CCN(N=O)C(=O)NCCN1C(=O)c2cccc3cccc(c23)C1=O
inhibition at 8 µM (Sarcoma-180 [4]): 65% | inhibition at 8 µM (Sarcoma-180 [5]): 60% | T/C (Sarcoma-180 [10]): 140% | T/C (Ehrlich [11]): 134%
